Laboratory results: patent publication US12319655B2, “RAF kinase inhibitors and methods of use thereof” (Deciphera Pharmaceuticals, LLC, priority 2021, dated 2025)

Assays:
[1] = target: C-Raf kinase (SEQ. ID NO: 3) (Homo sapiens (Human), UniProt P04049, Y340D/Y341D); test: Biochemical Assay for C-Raf (1); settings: Table J, assay version (1); read-out: CRAF (1) IC50
Summary of the method: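 IC50 values come from a four-parameter fit of percent inhibition, using the reaction rate over 4–5 h of a 6 h continuous 340 nm read at 30 °C. The enzyme mix was C-Raf 0.43 nM, MEK substrate 30.1 nM and ATP 1 mM, in a PK/LDH NADH-coupled format in Tris pH 7.5 with 1% DMSO.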

[2] = tested on: A375 cells; test: A375 Cell Proliferation Assay (1); assay type: cell-based; settings: Homo sapiens, A-375
Summary of the method: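 Resazurin fluorescence (excitation 540 nm, emission 600 nm, after a further 5-6 h) gave IC50s from triplicate compound dilution series.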

[3] = tested on: WM3928 cells; test: WM3928 Cell Proliferation Assay (1); assay type: cell-based
Summary of the method: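 IC50 was derived from resazurin fluorescence (ex 540, em 600 nm) after a 6–7 h dye incubation. Before that, cells had 67–72 h of compound exposure at 37 °C, 5% CO2.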

[4] = target: B-Raf (V600E) (SEQ. ID NO: 4) kinase (Homo sapiens (Human), UniProt P15056, V600E); test: Biochemical Assay for B-Raf (V600E) (1); settings: Table J, BRAF V600E, assay version (1); read-out: BRAF VE (1) IC50
Summary of the method: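 Serially diluted compounds tested against 0.03 nM enzyme with 30.1 nM MEK substrate and 1 mM ATP (Tris pH 7.5, 15 mM MgCl2), ATP use coupled to NADH loss via PK/LDH. A340 monitored continuously 6 h, 30 °C; IC50 fitted (four-parameter) from the 3–4 h rate versus no-compound and known-inhibitor controls.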

Chain of B-Raf (V600E) (SEQ. ID NO: 4) kinase (P15056 416-766 V600E): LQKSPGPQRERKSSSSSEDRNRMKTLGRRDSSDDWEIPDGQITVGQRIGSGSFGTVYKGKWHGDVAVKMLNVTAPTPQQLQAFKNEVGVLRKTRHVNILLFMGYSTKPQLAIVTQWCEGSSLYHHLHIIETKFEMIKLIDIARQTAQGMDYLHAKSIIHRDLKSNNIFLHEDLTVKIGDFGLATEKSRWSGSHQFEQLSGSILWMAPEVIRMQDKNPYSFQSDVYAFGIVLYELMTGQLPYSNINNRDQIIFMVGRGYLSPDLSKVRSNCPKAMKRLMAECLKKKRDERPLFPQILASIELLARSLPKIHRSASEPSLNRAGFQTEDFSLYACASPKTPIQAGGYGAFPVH
Chain of C-Raf kinase (SEQ. ID NO: 3) (P04049 307-648 Y340D/Y341D): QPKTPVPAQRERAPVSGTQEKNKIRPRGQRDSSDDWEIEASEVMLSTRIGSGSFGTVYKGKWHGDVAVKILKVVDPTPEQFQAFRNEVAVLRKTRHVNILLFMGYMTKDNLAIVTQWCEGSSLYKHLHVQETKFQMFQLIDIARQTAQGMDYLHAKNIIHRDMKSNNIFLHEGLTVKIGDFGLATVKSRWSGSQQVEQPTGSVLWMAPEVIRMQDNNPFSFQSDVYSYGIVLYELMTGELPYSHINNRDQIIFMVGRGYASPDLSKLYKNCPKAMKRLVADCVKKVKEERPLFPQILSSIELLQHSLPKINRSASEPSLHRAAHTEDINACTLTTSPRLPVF

| Structure (SMILES) | IC50 [1] [nM] | IC50 [2] [nM] | IC50 [3] [nM] | IC50 [4] [nM] |
| --- | --- | --- | --- | --- |
| Cc1ncc(NC(=O)c2ccnc(C(C)(C)C#N)c2)cc1-c1cc(-c2cc(NC(=O)C3CC3)ncn2)cc(C2CC2)c1 [Example 218] | ≤ 100 | ≤ 100 | ≤ 100 | ≤ 100 |
| Cc1ncc(NC(=O)c2ccnc(C(C)(C)C#N)c2)cc1-c1ccnc(-c2ccnc(NC(=O)C(C)(C)C#N)c2)c1 [Example 219] | 100 to 500 | 100 to 500 | 100 to 500 | ≤ 100 |
| Cc1ccc(NC(=O)c2ccnc(C3(C#N)CC3)c2)cc1-c1cccc(-c2cc(NC(=O)C3CC3)ncn2)n1 [Example 220] | 100 to 500 | 1000 to 10000 | 1000 to 10000 | ≤ 100 |
| COCCNc1cc(-c2nccc(-c3cc(NC(=O)c4ccnc(C(C)(C)C#N)c4)ccc3C)n2)ccn1 [Example 221] | ≤ 100 | 1000 to 10000 | 500 to 1000 | ≤ 100 |
| Cc1ncc(NC(=O)c2ccnc(C(C)(C)C#N)c2)cc1-c1cccc(-c2ccnc(NC(=O)C3CC3)c2)c1 [Example 222] | ≤ 100 | ≤ 100 | ≤ 100 | ≤ 100 |
| Cc1ccc(NC(=O)c2ccnc(C(C)(C)C#N)c2)cc1-c1cccc(-c2ccnc(NC(=O)C3CC3)c2)c1 [Example 223] | ≤ 100 | ≤ 100 | ≤ 100 | ≤ 100 |
| Cc1ccc(NC(=O)c2ccnc(C(C)(C)C#N)c2)cc1-c1cncc(-c2cc(NC(=O)C3CC3)ncn2)c1 [Example 224] | ≤ 100 | ≤ 100 | ≤ 100 | ≤ 100 |
| COC(=O)Nc1cc(-c2cccc(-c3cc(NC(=O)c4ccnc(C(C)(C)C#N)c4)cnc3C)c2)ncn1 [Example 225] | ≤ 100 | ≤ 100 | ≤ 100 | ≤ 100 |
| Cc1ncc(NC(=O)c2ccnc(C(C)(C)C#N)c2)cc1-c1cccc(-c2cc(NC(=O)C3CC3)ncn2)n1 [Example 226] | 500 to 1000 | 1000 to 10000 | 1000 to 10000 | 100 to 500 |
| Cc1ccc(NC(=O)c2ccnc(C3CC3)c2)cc1-c1ccnc(-c2ccnc(NC(=O)C3CC3)c2)n1 [Example 229] | ≤ 100 | 100 to 500 | ≤ 100 | ≤ 100 |
| Cc1ccc(NC(=O)c2ccnc(C(C)(C)C#N)c2)cc1-c1cnnc(-c2ccnc(NC(=O)C3CC3)c2)c1 [Example 230] | ≤ 100 | ≤ 100 | ≤ 100 | ≤ 100 |
| CNC(=O)c1cc(-c2cc(-c3cc(NC(=O)c4cccc(C(C)(C)C#N)c4)ccc3C)cc(OCCO)n2)ccn1 [Example 231] | ≤ 100 | ≤ 100 | ≤ 100 | ≤ 100 |
| Cc1ccc(NC(=O)c2ccnc(C(C)(C)C#N)c2)cc1-c1cccc(-c2cc(NC(=O)C3CC3)ncn2)n1 [Example 233] | ≤ 100 | 500 to 1000 | 1000 to 10000 | ≤ 100 |
| CNC(=O)c1cc(-c2cncc(-c3cc(NC(=O)c4ccnc(C(C)(C)C#N)c4)ccc3C)c2)ncn1 [Example 235] | ≤ 100 | ≤ 100 | ≤ 100 | ≤ 100 |
| Cc1ccc(NC(=O)c2ccnc(C(C)(C)C#N)c2)cc1-c1ccnc(-c2ccnc(NC(=O)C3(C#N)CC3)c2)n1 [Example 241] | ≤ 100 | ≤ 100 | ≤ 100 | ≤ 100 |
| CNC(=O)c1cc(-c2ccnc(-c3cc(NC(=O)c4ccnc(C(C)(C)C#N)c4)c(F)cc3C)n2)ccn1 [Example 242] | 100 to 500 | 500 to 1000 | 100 to 500 | ≤ 100 |
| Cc1ccc(NC(=O)c2ccnc(C(C)(C)C#N)c2)cc1-c1cc(-c2ccnc(NC(=O)C3CC3)c2)cnn1 [Example 245] | ≤ 100 | ≤ 100 | ≤ 100 | ≤ 100 |
| Cc1ncc(NC(=O)c2ccnc(C(C)(C)F)c2)cc1-c1cccc(-c2cc(NC(=O)C3CC3)ncn2)c1 [Example 249] | ≤ 100 | ≤ 100 | ≤ 100 | ≤ 100 |
| Cc1ccc(NC(=O)c2cnnc(C3CC3)c2)cc1-c1ccnc(-c2ccnc(NC(=O)C3CC3)c2)n1 [Example 250] | ≤ 100 | 100 to 500 | 100 to 500 | ≤ 100 |

| Structure (SMILES) | IC50 [1] [nM] | IC50 [2] [nM] | IC50 [3] [nM] | IC50 [4] [nM] |
| --- | --- | --- | --- | --- |
| Cc1ncc(NC(=O)c2ccnc(C(C)(C)C#N)c2)cc1-c1ccnc(-c2ccnc(NC(=O)C3CC3)c2)c1 [Example 251] | ≤ 100 | ≤ 100 | ≤ 100 | ≤ 100 |
| Cc1cc(F)c(NC(=O)c2cnnc(C3CC3)c2)cc1-c1nccc(-c2ccnc(NC(=O)C3CC3)c2)n1 [Example 252] | ≤ 100 | 1000 to 10000 | 500 to 1000 | ≤ 100 |
| Cc1ncc(NC(=O)c2ccnc(C3CC3)c2)cc1-c1ccnc(-c2ccnc(NC(=O)C3CC3)c2)c1 [Example 253] | ≤ 100 | 100 to 500 | ≤ 100 | ≤ 100 |
| Cc1ncc(NC(=O)c2cnnc(C3CC3)c2)cc1-c1ccnc(-c2ccnc(NC(=O)C3CC3)c2)c1 [Example 254] | ≤ 100 | 1000 to 10000 | 1000 to 10000 | ≤ 100 |
| Cc1ccc(NC(=O)c2ccnc(C3CC3)c2)cc1-c1cccc(-c2cc(NC(=O)C3CC3)ncn2)c1 [Example 255] | ≤ 100 | ≤ 100 | ≤ 100 | ≤ 100 |
| Cc1ncc(NC(=O)c2ccnc(C3CC3)c2)cc1-c1cnc(C)c(-c2ccnc(NC(=O)C3CC3)c2)c1 [Example 256] | ≤ 100 | 500 to 1000 | 500 to 1000 | ≤ 100 |
| Cc1ccc(NC(=O)c2ccnc(C(C)(C)C#N)c2)cc1-c1ccnc(-c2ccnc(NC(=O)C3CC3)c2)n1 [Example 257] | ≤ 100 | ≤ 100 | ≤ 100 | ≤ 100 |
| Cc1cc(F)c(NC(=O)c2ccnc(C3(C#N)CC3)c2)cc1-c1ccnc(-c2ccnc(NC(=O)C3CC3)c2)n1 [Example 262] | ≤ 100 | ≤ 100 | ≤ 100 | ≤ 100 |
| Cc1cc(F)c(NC(=O)c2cnnc(C3CC3)c2)cc1-c1ccnc(-c2ccnc(NC(=O)C3CC3)c2)n1 [Example 263] | ≤ 100 | 1000 to 10000 | 500 to 1000 | ≤ 100 |
| CNC(=O)c1cc(-c2cc(-c3cc(NC(=O)c4ccnc(C(C)(C)OC)c4)ccc3C)ccn2)ccn1 [Example 264] | ≤ 100 | ≤ 100 | ≤ 100 | ≤ 100 |
| CNC(=O)c1cc(-c2cc(-c3cc(NC(=O)c4ccnc(C5(C#N)CC5)c4)ccc3C)ccn2)ccn1 [Example 265] | ≤ 100 | ≤ 100 | ≤ 100 | ≤ 100 |
| Cc1ccc(NC(=O)c2ccnc(C(C)(C)C#N)c2)cc1-c1cccc(-c2cc(N)ncn2)c1 [Example 267] | ≤ 100 | 100 to 500 | 100 to 500 | ≤ 100 |
| Cc1ncc(NC(=O)c2ccnc(C3CC3)c2)cc1-c1cccc(-c2ccnc(NC(=O)C3CC3)c2)n1 [Example 270] | ≤ 100 | 100 to 500 | 100 to 500 | ≤ 100 |
| Cc1cc(F)c(NC(=O)c2ccnc(C(F)(F)F)c2)cc1-c1cncc(-c2ccnc(NC(=O)C3CC3)c2)n1 [Example 271] | ≤ 100 | 500 to 1000 | ≤ 100 | ≤ 100 |
| Cc1cc(C(=O)Nc2cnc(C)c(-c3ccnc(-c4ccnc(NC(=O)C5CC5)c4)n3)c2)ccn1 [Example 273] | ≤ 100 | 1000 to 10000 | 1000 to 10000 | ≤ 100 |
| COC(C)(C)c1cc(C(=O)Nc2cnc(C)c(-c3cccc(-c4cc(NC(=O)C5CC5)ncn4)c3)c2)ccn1 [Example 274] | ≤ 100 | ≤ 100 | ≤ 100 | ≤ 100 |
| Cc1ncc(NC(=O)c2ccnc(C3CC3)c2)cc1-c1ccnc(-c2ccnc(NC(=O)C3CC3)c2)n1 [Example 277] | ≤ 100 | 500 to 1000 | 100 to 500 | ≤ 100 |
| Cc1ncc(NC(=O)c2cnnc(C3CC3)c2)cc1-c1ccnc(-c2ccnc(NC(=O)C3CC3)c2)n1 [Example 278] | ≤ 100 | 1000 to 10000 | 1000 to 10000 | ≤ 100 |
| Cc1ncc(NC(=O)c2cnn(C(C)(C)C)c2)cc1-c1cccc(-c2cc(NC(=O)C3CC3)ncn2)c1 [Example 279] | ≤ 100 | 100 to 500 | ≤ 100 | ≤ 100 |
